These results are taken from patent US8378117B2 (priority 2005, dated 2013).

Assay [1] addresses T1, CB1 receptor (Homo sapiens, UniProt P21554).
T1 construct: expressed in transfected cells
In words: cell-based. A digest of the protocol:
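Read-out is forskolin-driven CRE-β-gal reporter activity in stably transfected human-CB1 SK-N-MC cells, normalised to vehicle (100%); agonism lowers, inverse agonism raises signal. Values are EC50 (linear regression, multiple concentrations) or % change at one concentration.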

Assay [2] has as its target T2, CB2 receptor (Homo sapiens, UniProt P34972).
T2 construct: expressed in transfected cells
In words: Functional cell-based assay, CB2 receptor mediated change in CRE β-gal expression (SK-N-MC cells). As to conditions: for pEC50: SK-N-MC cells. An excerpt:
The CB1 and CB2 receptors are G-protein coupled receptors (GPCR), which influence cell function via the Gi-protein. These receptors modulate the activity of intracellular adenylate cyclase, which in turn produces the intracellular signal messenger cyclic-AMP (cAMP).
At baseline, or during non-ligand bound conditions, these receptors are constitutively active and tonically suppress adenylate cyclase activity. The binding of an agonist causes further receptor activation and produces additional suppression of adenylate cyclase activity. The binding of an inverse agonist inhibits the constitutive activity of the receptors and results in an increase in adenylate cyclase activity.
By monitoring intracellular adenylate cyclase activity, the ability of compounds to act as agonists or inverse agonists can be determined.
Test compounds were evaluated in SK-N-MC cells which, using standard transfection procedures, were stably transfected with human cDNA for pcDNA3-CRE β-gal and pcDNA3 CB1 receptor (human) or pcDNA3 CB2 receptor (human). By expressing CRE β-gal, the cells produced β-galactosidase in response to CRE promoter activation by cAMP. Cells expressing CRE β-gal and either the human CB1 or CB2 receptor will produce less β-galactosidase when treated with a CB1/CB2 agonist and will produce more β-galactosidase when treated with a CB1/CB2 inverse agonist.
The cells were grown in 96-well plates under standard cell culture conditions at 37° C. in a 5% CO2 atmosphere and culture media (wherein the media was supplemented with 2 mM L-glutamine, […] sodium pyruvate, 10% FBS (fetal bovine serum) and antibiotics).
For cells expressing CRE β-gal and the CB2 receptor, CB2 agonists reduced β-galactosidase activity in a dose-dependent manner and CB2 inverse agonists increase β-galactosidase activity in a dose-dependent manner.
The change in forskolin induced β-galactosidase activity was determined by setting a vehicle treated cell's activity value at 100% and expressing the β-galactosidase activity measured in a corresponding compound treated cell as a percent of the vehicle treated cell activity.
The EC50 value for functional activity for compounds tested was calculated by linear regression and was obtained from studies in which varying compound concentrations were used.

Assay [3] concerns the target T1, CB1 receptor. In words: Binding assay for CB1 agonists or inverse agonists (SK-N-MC membranes, [3H]-CP-55,940). Conditions: for pIC50: Cannabinoid CB1 Receptor Binding IC50, calculated by linear regression from percent inhibition at various test concentrations. A digest of the protocol: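 Radioligand displacement: [3H]-CP-55,940 at […], 90 min at 30° C, pH 7.5 Tris buffer with 0.5 mg/mL fatty-acid-free BSA, using semi-purified membranes of human-CB1-transfected SK-N-MC cells. Bound counts collected on GF/C filters, 10 uM WIN 55,212 for non-specific; IC50 from percent inhibition over several concentrations.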

The target in assay [4] is T2, CB2 receptor. In words: Binding assay for CB2 agonists or inverse agonists (SK-N-MC membranes, [3H]-CP-55,940). Conditions: for inhibition at 0.2 µM: read-out: CB2 receptor binding percent inhibition, test concentration 0.2 μM (footnote 2); for pIC50: Cannabinoid CB2 Receptor Binding IC50, calculated by linear regression from percent inhibition at various test concentrations. Put shortly:
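IC50 came from percent-inhibition data over several compound concentrations, fitted by linear regression. Binding used semi-purified membranes of human CB2-transfected SK-N-MC cells, 90 min at 30 °C, pH 7.5 Tris-HCl with MgCl2, EDTA and BSA, then filtration and scintillation counting.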

Where [5] appears, read: CB1 Receptor Functional Agonist EC50, SK-N-MC cells, forskolin induced β-galactosidase activity.
The mark [6] stands for this setting: CB2 Receptor Functional Agonist EC50, forskolin induced β-galactosidase activity.
The mark [7] stands for this setting: read-out: CB1 receptor binding percent inhibition, test concentration 0.2 μM (footnote 2).

pEC50, pIC50: −log10 of the molar value. Where two headings read alike, the source gives them in different places. A value given as a limit tells only on which side of the number the result lay.

T2 sequence (P34972 whole entry): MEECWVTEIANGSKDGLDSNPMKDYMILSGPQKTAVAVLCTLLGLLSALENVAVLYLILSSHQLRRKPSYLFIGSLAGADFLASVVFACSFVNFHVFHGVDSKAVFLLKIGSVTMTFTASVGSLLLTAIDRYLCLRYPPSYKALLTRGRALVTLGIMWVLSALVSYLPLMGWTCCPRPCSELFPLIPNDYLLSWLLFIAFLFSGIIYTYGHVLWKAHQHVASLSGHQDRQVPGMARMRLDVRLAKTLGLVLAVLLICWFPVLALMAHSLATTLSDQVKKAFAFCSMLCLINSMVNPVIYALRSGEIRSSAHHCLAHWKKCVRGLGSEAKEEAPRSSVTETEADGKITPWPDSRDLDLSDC
T1 sequence (P21554 whole entry): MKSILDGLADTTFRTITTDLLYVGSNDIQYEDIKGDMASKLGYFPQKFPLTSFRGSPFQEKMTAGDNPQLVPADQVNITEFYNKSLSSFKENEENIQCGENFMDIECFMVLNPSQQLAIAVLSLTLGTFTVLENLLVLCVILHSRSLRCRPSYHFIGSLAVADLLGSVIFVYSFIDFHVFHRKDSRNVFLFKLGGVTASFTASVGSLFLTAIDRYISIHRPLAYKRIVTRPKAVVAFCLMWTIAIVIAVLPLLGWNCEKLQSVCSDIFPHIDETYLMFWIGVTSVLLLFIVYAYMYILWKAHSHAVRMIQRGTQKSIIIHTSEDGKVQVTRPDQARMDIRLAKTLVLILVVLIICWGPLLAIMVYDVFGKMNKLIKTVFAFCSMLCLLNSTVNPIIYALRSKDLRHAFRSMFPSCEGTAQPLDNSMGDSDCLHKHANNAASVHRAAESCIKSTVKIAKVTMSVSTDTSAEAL

A word on the pEC50: it is the negative decadic logarithm of the EC50, by convention in mol/L. `COC[C@@H](NC(=O)c1n[nH]c2c1CCCC[C@@H]2Cc1cccc(Cl)c1)c1ccccc1` (stereo in doubt) [Cpd 251, (8R*)-(3-chloro-benzyl)-1,4,5,6,7,8-hexahydro-cycloheptapyrazole-3-carboxylic acid [(1S)-2-methoxy-1-phenyl-ethyl]-amide]: the pEC50 at CB1 receptor [1] (setting [5]) is 6.39; on CB2 receptor [2] (setting [6]), 8.52.
On the same counts, the results for `COC[C@@H](NC(=O)c1n[nH]c2c1CCCC[C@H]2Cc1cccc(Cl)c1)c1ccccc1` (stereo in doubt) [Cpd 252, (8S*)-(3-chloro-benzyl)-1,4,5,6,7,8-hexahydro-cycloheptapyrazole-3-carboxylic acid [(1S)-2-methoxy-1-phenyl-ethyl]-amide] are under 5.30 and 7.72.
For `COC[C@H](NC(=O)c1n[nH]c2c1CCCC[C@H]2Cc1cccc(Cl)c1)c1ccccc1` (stereo in doubt) [Cpd 253, (8S*)-(3-chloro-benzyl)-1,4,5,6,7,8-hexahydro-cycloheptapyrazole-3-carboxylic acid [(1R)-2-methoxy-1-phenyl-ethyl]-amide], the pEC50 was under 5.30 on CB1 receptor [1] (setting [5]) and 6.70 on CB2 receptor [2] (setting [6]).
On the same counts, the results for `COC[C@H](NC(=O)c1n[nH]c2c1CCCC[C@@H]2Cc1cccc(Cl)c1)c1ccccc1` (stereo in doubt) [Cpd 254, (8R*)-(3-chloro-benzyl)-1,4,5,6,7,8-hexahydro-cycloheptapyrazole-3-carboxylic acid [(1R)-2-methoxy-1-phenyl-ethyl]-amide] are 7.10 and 8.70.
By pIC50 is commonly meant the negative decadic logarithm of the IC50, by convention in mol/L. Regarding `C[C@@H](NC(=O)c1n[nH]c2c1CCCC/C2=C\c1ccc(Cl)cc1)c1ccccc1` [Cpd 142, (8E)-8-(4-chloro-benzylidene)-1,4,5,6,7,8-hexahydro-cycloheptapyrazole-3-carboxylic acid [(1R)-1-phenyl-ethyl]-amide], at CB1 receptor [3], the negative-log IC50 (pIC50) is 8.00. Moreover, the inhibition at 0.2 µM on CB1 receptor [3] (read-out: CB1 receptor binding percent inhibition) worked out at 83%. Also, on CB2 receptor [4] (test concentration 0.2 μM (footnote 2)), the “CB2 receptor binding percent inhibition” value is “^(2)98%”. In addition, the “CB2 receptor change in functional activity” value at CB2 receptor [2] (one compound concentration, forskolin induced β-galactosidase activity) is listed as 1%.
Turning to `COc1ccc(/C=C2\CCCCc3c(C(=O)N[C@H](C)c4ccccn4)nn(-c4ccc(Cl)cc4Cl)c32)cc1` [Cpd 227, (8E)-1-(2,4-dichloro-phenyl)-8-(4-methoxy-benzylidene)-1,4,5,6,7,8-hexahydro-cycloheptapyrazole-3-carboxylic acid [(1R)-1-pyridin-2-yl-ethyl)-amide], the pEC50 on CB1 receptor [1] (CB1 Receptor Functional Inverse Agonist EC50, forskolin induced β-galactosidase activity, SK-N-MC cells) was 8.70. For the same compound, on CB1 receptor [3], the pIC50 is 8.05. In addition, the inhibition at 0.2 µM at CB1 receptor [3] (setting [7]) is 90%; at CB2 receptor [4], 19%.
Regarding `O=C(N[C@@H](CO)c1ccccc1)c1n[nH]c2c1CCCC/C2=C\c1ccc(Cl)cc1` [Cpd 234, (8E)-8-(4-chloro-benzylidene)-1,4,5,6,7,8-hexahydro-cycloheptapyrazole-3-carboxylic acid [(1R)-2-hydroxy-1-phenyl-ethyl]-amide], the pEC50 is 8.10 on CB1 receptor [1] (setting [5]) and 8.30 on CB2 receptor [2] (setting [6]). Moreover, the pIC50 at CB1 receptor [3] is 7.70; at CB2 receptor [4], 7.22. For the same compound, the inhibition at 0.2 µM on CB1 receptor [3] (setting [7]) is 87%; on CB2 receptor [4], 93%.
With `COC(=O)[C@H](Cc1ccc(F)cc1)NC(=O)c1n[nH]c2c1CCCC/C2=C\c1ccc(Cl)cc1` [Cpd 238, (8E)-(2S)-2-{[8-(4-chloro-benzylidene)-1,4,5,6,7,8-hexahydro-cycloheptapyrazole-3-carbonyl]-amino}-3-(4-fluoro-phenyl)-propionic acid methyl ester], the pEC50 is 6.82 on CB1 receptor [1] (setting [5]) and 9.00 at CB2 receptor [2] (setting [6]). Also, the pIC50 was 7.52 at CB1 receptor [3] and 8.00 at CB2 receptor [4]. Moreover, the inhibition at 0.2 µM is 85% on CB1 receptor [3] (setting [7]) and 93% at CB2 receptor [4].
Take `O=C(N[C@@H](CO)c1ccccc1)c1n[nH]c2c1CCCC/C2=C\c1cccc(Cl)c1` [Cpd 239, (8E)-8-(3-chloro-benzylidene)-1,4,5,6,7,8-hexahydro-cycloheptapyrazole-3-carboxylic acid [(1R)-2-hydroxy-1-phenyl-ethyl]-amide]: the pEC50 is 7.70 on CB1 receptor [1] (setting [5]) and 9.22 on CB2 receptor [2] (setting [6]). The pIC50 at CB1 receptor [3] was 7.52; on CB2 receptor [4], 7.70. Further, the values for the inhibition at 0.2 µM at CB1 receptor [3] (setting [7]) and on CB2 receptor [4] were 80% and 91%, respectively.
In the case of `COC(=O)[C@H](Cc1ccc(F)cc1)NC(=O)c1n[nH]c2c1CCCC/C2=C\c1cccc(Cl)c1` [Cpd 240, (8E)-(2S)-2-{[8-(3-chloro-benzylidene)-1,4,5,6,7,8-hexahydro-cycloheptapyrazole-3-carbonyl]-amino}-3-(4-fluoro-phenyl)-propionic acid methyl ester], the pEC50 on CB1 receptor [1] (setting [5]) was 5.80; at CB2 receptor [2] (setting [6]) it was 7.89. Moreover, the pIC50 on CB1 receptor [3] is 6.70; on CB2 receptor [4], 7.40. Also, the inhibition at 0.2 µM at CB1 receptor [3] (setting [7]) is 35%; on CB2 receptor [4], 78%.
Consider `COC(=O)[C@H](Cc1ccc(F)cc1)NC(=O)c1nn(C)c2c1CCCC/C2=C\c1cccc(F)c1` [Cpd 241, (8E)-(2S)-2-{[8-(3-fluoro-benzylidene)-1-methyl-1,4,5,6,7,8-hexahydro-cycloheptapyrazole-3-carbonyl]-amino}-3-(4-fluoro-phenyl)-propionic acid methyl ester], for which the figures for the pEC50 on CB1 receptor [1] (setting [5]) and at CB2 receptor [2] (setting [6]) were 5.55 and 7.74, respectively. The pIC50 is 6.70 on CB1 receptor [3] and 7.00 on CB2 receptor [4]. Also, the inhibition at 0.2 µM on CB1 receptor [3] (setting [7]) was 33%; on CB2 receptor [4], 62%.
For `Cn1nc(C(=O)N[C@@H](CO)c2ccccc2)c2c1/C(=C/c1cccc(F)c1)CCCC2` [Cpd 242, (8E)-8-(3-fluoro-benzylidene)-1-methyl-1,4,5,6,7,8-hexahydro-cycloheptapyrazole-3-carboxylic acid [(1R)-2-hydroxy-1-phenyl-ethyl]-amide], the results for the pEC50 at CB1 receptor [1] (setting [5]) and on CB2 receptor [2] (setting [6]) were 7.52 and 7.96, respectively. Besides, the pIC50 was 7.70 on CB1 receptor [3] and 7.00 at CB2 receptor [4]. For the same compound, the inhibition at 0.2 µM on CB1 receptor [3] (setting [7]) was determined as 80%; on CB2 receptor [4], 50%.
As to `Cn1nc(C(=O)N[C@H](CO)Cc2ccc(O)cc2)c2c1/C(=C/c1cccc(F)c1)CCCC2` [Cpd 244, (8E)-(2S)-8-(3-fluoro-benzylidene)-1-methyl-1,4,5,6,7,8-hexahydro-cycloheptapyrazole-3-carboxylic acid [1-hydroxymethyl-2-(4-hydroxy-phenyl)-ethyl]-amide], the values for the pEC50 on CB1 receptor [1] (setting [5]) and at CB2 receptor [2] (setting [6]) were 6.22 and 8.30, respectively. Also, the pIC50 is 7.00 at CB1 receptor [3] and 7.70 at CB2 receptor [4]. Further, the results for the inhibition at 0.2 µM at CB1 receptor [3] (setting [7]) and on CB2 receptor [4] were 68% and 78%, respectively.
As for `Cn1nc(C(=O)N[C@H](CCO)c2ccccc2)c2c1/C(=C/c1cccc(F)c1)CCCC2` [Cpd 249, (8E)-8-(3-fluoro-benzylidene)-1-methyl-1,4,5,6,7,8-hexahydro-cycloheptapyrazole-3-carboxylic acid [(1R)-3-hydroxy-1-phenyl-propyl]-amide], the pEC50 on CB1 receptor [1] (setting [5]) was under 5.30; on CB2 receptor [2] (setting [6]), 7.33.
Consider `O=C(N[C@H](CCO)c1ccccc1)c1n[nH]c2c1CCCC/C2=C\c1cccc(Cl)c1` [Cpd 250, (8E)-8-(3-chloro-benzylidene)-1,4,5,6,7,8-hexahydro-cycloheptapyrazole-3-carboxylic acid [(1R)-3-hydroxy-1-phenyl-propyl]-amide], for which the pEC50 at CB1 receptor [1] (SK-N-MC cells, forskolin induced β-galactosidase activity, read-out: CB1 Receptor Functional Agonist EC50) was under 5.30; on CB2 receptor [2] (forskolin induced β-galactosidase activity, read-out: CB2 Receptor Functional Agonist EC50), 6.89.
